Test: xn = mol fraction of the nth substance listed
Conditions: 101 kPa, Liquid; for viscosity: Capillary tube (Ostwald / Ubbelohde) method

CCC(=O)[O-].CC[NH+]1CCNCC1 [N-ethylpiperazinium propionate] + CCCCO
Conditions | mass density, 298.15 K [kg/m3] | mass density, 303.15 K [kg/m3] | mass density, 308.15 K [kg/m3] | mass density, 313.15 K [kg/m3] | viscosity, 298.15 K [mPa·s] | viscosity, 303.15 K [mPa·s] | viscosity, 308.15 K [mPa·s] | viscosity, 313.15 K [mPa·s]
x2 = 0 | 1008.36 | 1004.38 | 1000.33 | 996.237 | 243.49 | 164.81 | 113.44 | 80.93
x2 = 0.1025 | 998.465 | 994.495 | 990.478 | 986.427 | 177.49 | 122.06 | 84.94 | 61.07
x2 = 0.2018 | 987.497 | 983.536 | 979.527 | 975.484 | 133.79 | 91.02 | 63.82 | 46.53
x2 = 0.2999 | 975.365 | 971.427 | 967.437 | 963.409 | 98.72 | 67.32 | 47.84 | 35.22
x2 = 0.3989 | 961.397 | 957.475 | 953.503 | 949.491 | 73.16 | 50.02 | 35.72 | 26.48
x2 = 0.5016 | 944.783 | 940.876 | 936.907 | 932.906 | 53.48 | 36.42 | 26.02 | 19.37
x2 = 0.6004 | 926.29 | 922.385 | 918.422 | 914.42 | 38.82 | 26.35 | 18.8 | 14.05
x2 = 0.7012 | 903.96 | 900.045 | 896.078 | 892.071 | 27.07 | 18.12 | 12.92 | 9.675
x2 = 0.8008 | 877.764 | 873.84 | 869.866 | 865.851 | 17.51 | 11.84 | 8.502 | 6.434
x2 = 0.8995 | 845.961 | 842.05 | 838.083 | 834.079 | 9.611 | 6.701 | 4.966 | 3.87

CCC(=O)[O-].CC[NH+]1CCNCC1 [N-ethylpiperazinium propionate] + CCCO
Conditions | mass density, 298.15 K [kg/m3] | mass density, 303.15 K [kg/m3] | mass density, 308.15 K [kg/m3] | mass density, 313.15 K [kg/m3] | viscosity, 298.15 K [mPa·s] | viscosity, 303.15 K [mPa·s] | viscosity, 308.15 K [mPa·s] | viscosity, 313.15 K [mPa·s]
x2 = 0 | 1008.36 | 1004.38 | 1000.33 | 996.237 | 243.49 | 164.81 | 113.44 | 80.93
x2 = 0.1036 | 1000.19 | 996.232 | 992.229 | 988.196 | 160.34 | 113.63 | 81.46 | 59.74
x2 = 0.2026 | 991.259 | 987.3 | 983.298 | 979.269 | 107.67 | 76.59 | 56.22 | 42.19
x2 = 0.3041 | 980.78 | 976.824 | 972.831 | 968.803 | 70.22 | 52.12 | 39.45 | 30.42
x2 = 0.4017 | 968.85 | 964.943 | 960.993 | 956.993 | 47.45 | 36.21 | 28.19 | 22.22
x2 = 0.4993 | 955.014 | 951.074 | 947.084 | 943.06 | 30.81 | 24.26 | 19.38 | 15.67
x2 = 0.5997 | 937.035 | 933.087 | 929.086 | 925.047 | 18.93 | 15.39 | 12.6 | 10.42
x2 = 0.6994 | 915.033 | 911.053 | 907.028 | 902.965 | 11.31 | 9.444 | 7.899 | 6.684
x2 = 0.8009 | 886.568 | 882.553 | 878.491 | 874.385 | 6.389 | 5.454 | 4.689 | 4.059
x2 = 0.8997 | 850.105 | 846.036 | 841.932 | 837.782 | 3.609 | 3.15 | 2.762 | 2.435

CCC(=O)[O-].CC[NH+]1CCNCC1 [N-ethylpiperazinium propionate] + CCO
Conditions | mass density, 298.15 K [kg/m3] | mass density, 303.15 K [kg/m3] | mass density, 308.15 K [kg/m3] | mass density, 313.15 K [kg/m3] | viscosity, 298.15 K [mPa·s] | viscosity, 303.15 K [mPa·s] | viscosity, 308.15 K [mPa·s] | viscosity, 313.15 K [mPa·s]
x2 = 0 | 1008.36 | 1004.38 | 1000.33 | 996.237 | 243.49 | 164.81 | 113.44 | 80.93
x2 = 0.0971 | 1002.79 | 998.809 | 994.769 | 990.695 | 170.13 | 119.44 | 85.41 | 61.23
x2 = 0.2017 | 995.311 | 991.322 | 987.293 | 983.232 | 109.9 | 82.6 | 60.3 | 44.79
x2 = 0.3033 | 986.576 | 982.598 | 978.579 | 974.526 | 75.85 | 55.8 | 42.03 | 32.1
x2 = 0.3983 | 976.628 | 972.658 | 968.645 | 964.592 | 48.89 | 37.01 | 28.65 | 22.63
x2 = 0.5001 | 963.41 | 959.429 | 955.408 | 951.35 | 29.59 | 23.34 | 18.57 | 15.06
x2 = 0.6006 | 946.741 | 942.745 | 938.702 | 934.623 | 17.18 | 14 | 11.54 | 9.602
x2 = 0.6994 | 925.277 | 921.231 | 917.149 | 913.029 | 9.403 | 7.923 | 6.734 | 5.766
x2 = 0.8001 | 895.282 | 891.163 | 887.012 | 882.818 | 4.925 | 4.279 | 3.74 | 3.286
x2 = 0.8998 | 852.465 | 848.243 | 843.982 | 839.679 | 2.437 | 2.175 | 1.947 | 1.749

CCC(=O)[O-].CC[NH+]1CCNCC1 [N-ethylpiperazinium propionate] + CO
Conditions | mass density, 298.15 K [kg/m3] | mass density, 303.15 K [kg/m3] | mass density, 308.15 K [kg/m3] | mass density, 313.15 K [kg/m3] | viscosity, 298.15 K [mPa·s] | viscosity, 303.15 K [mPa·s] | viscosity, 308.15 K [mPa·s] | viscosity, 313.15 K [mPa·s]
x2 = 0 | 1008.36 | 1004.38 | 1000.33 | 996.237 | 243.49 | 164.81 | 113.44 | 80.93
x2 = 0.107 | 1004.94 | 1000.96 | 996.919 | 992.856 | 172.19 | 121.04 | 86.27 | 62.74
x2 = 0.21 | 1000.73 | 996.739 | 992.724 | 988.682 | 123.07 | 89.92 | 65.93 | 49.08
x2 = 0.297 | 996.263 | 992.299 | 988.292 | 984.255 | 84.02 | 63.49 | 47.38 | 36.14
x2 = 0.402 | 989.36 | 985.408 | 981.411 | 977.382 | 52.96 | 40.86 | 31.63 | 24.89
x2 = 0.5021 | 980.548 | 976.585 | 972.582 | 968.548 | 32.54 | 25.5 | 20.36 | 16.5
x2 = 0.5994 | 968.97 | 964.991 | 960.968 | 956.912 | 18.41 | 15.03 | 12.4 | 10.4
x2 = 0.7015 | 951.447 | 947.38 | 943.3 | 939.188 | 9.416 | 7.866 | 6.73 | 5.804
x2 = 0.7998 | 925.328 | 921.15 | 916.957 | 912.733 | 4.331 | 3.807 | 3.366 | 2.989
x2 = 0.8999 | 879.78 | 875.414 | 871.008 | 866.573 | 1.754 | 1.592 | 1.451 | 1.327
